# Results reported in patent US10794932B2, “Biosensor for the detection of a biological target, and method for manufacturing the same” (The Governing Council of The University of Toronto, priority 2016, dated 2020).
# Legend:
# TLR2 = target: T1, TLR2 (Mus musculus, UniProt Q9QUN7); assay: TLR multiplex sensor, EIS film resistance before/after exposure (Example 5), TLR2 sensor; assay type: binding; conditions: exposure 20 minutes
# T1 sequence (Q9QUN7 25-587): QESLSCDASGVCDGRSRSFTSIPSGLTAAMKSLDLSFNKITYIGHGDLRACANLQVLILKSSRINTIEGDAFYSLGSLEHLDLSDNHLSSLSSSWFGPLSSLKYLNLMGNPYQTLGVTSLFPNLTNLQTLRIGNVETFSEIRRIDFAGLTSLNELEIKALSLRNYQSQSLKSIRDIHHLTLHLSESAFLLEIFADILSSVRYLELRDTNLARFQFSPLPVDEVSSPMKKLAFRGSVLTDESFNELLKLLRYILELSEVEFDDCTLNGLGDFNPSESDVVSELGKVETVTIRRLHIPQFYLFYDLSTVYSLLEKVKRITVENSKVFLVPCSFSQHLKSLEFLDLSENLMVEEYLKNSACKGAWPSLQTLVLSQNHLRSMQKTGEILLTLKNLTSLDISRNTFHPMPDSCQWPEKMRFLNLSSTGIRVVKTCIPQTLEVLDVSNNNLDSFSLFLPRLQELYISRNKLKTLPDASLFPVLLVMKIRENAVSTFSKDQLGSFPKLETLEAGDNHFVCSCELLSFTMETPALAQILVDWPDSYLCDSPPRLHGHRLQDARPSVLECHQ
# Protocol: For each multiplex TLR sensor, 5 separate gold electrodes were used for binding TLR 1 to 5. The 5 modified electrodes/sensors were exposed to the analyte solution and evaluated one by one using potentiostats and electrochemical cells.
# The preparation of each TLR biosensor was evaluated using EIS. It is understood that cyclic voltammetry as well as electrochemical impedance microscopy can also be used for monitoring the modification. […] Ethanolamine was then applied to deactivate unreacted LPA. Due to dissociation of unspecific absorbed TLR, the Rct dropped slightly. Experimental curves were evaluated using a model to obtain the Rct values, which can be seen at FIG. 9. Measurements from at least triplicated samples prepared were used to obtain statistic information.
# The TLR1 sensor was exposed to an E. coli K12 whole-cell buffer solution for 20 minutes. The sensor was then removed, washed thoroughly and characterized in the electrochemical cell measuring the Rct again. The difference in Rct before and after exposure is the response triggered by the target. The same protocol was carried out for all remaining TLRs (TLRs 2-5) to obtain one set of pattern for E. coli K12 (FIGS. 10b to 10e). Multiple sets were investigated for statistical relevance. […]
# [1] = tested on: Toll-like receptor expressing cells; conditions: cited from earlier work
substance,measurement,setting,value
Pam3CSK4,delta Rct %,TLR2,35%
same,detection (lowest level previously reported),[1],2 µg/mL
